Results: patent US8445539B2, “Alpha-aminoamide derivatives useful in the treatment of psychiatric disorders” (priority 2007, dated 2013)

Experiments:
[1] = test system: MK-801-induced PPI disruption; experiment: Prepulse inhibition of startle with disruption by MK-801; type: in vivo, Wistar rats; details: for Percentage of inhibition: % PPI; for Percentage of inhibition / Acoustic tone alone / Startle amplitude on prepulse + pulse trials: pretreatment ralfinamide methanesulfonate 90 mg/kg oral, mean ± SEM; for Acoustic tone alone / Startle amplitude on prepulse + pulse trials: startle amplitude
Source text: Prepulse inhibition (PPI) is a cross-species phenomenon (i.e., it is present in mammals ranging from mice to humans), yet it is relatively impaired among schizophrenic patients. The PPI procedure is used to assess the subject's ability to “gate” or filter environmental information. In the acoustic (startle model) of sensorimotor gating a weak acoustic stimulus (prepulse) decrease the reflexive flinching response (startle) produced by a second, more intense, stimulus (the pulse). Drugs like dizocilpine (MK-801) or amphetamine disrupt PPI and represent an animal model of schizophrenia; antipsychotic drugs are able to prevent PPI deficit. The test is quite useful to screen potential antipsychotic drugs.
Methods: Male Wistar rats, weighing 200-300 g were used. Apparatus: All startle and PPI testing has been performed in four startle chambers. Each ventilated illuminated and sound proof chamber contained a clear non-restrictive Plexiglas cylinder resting on a platform. A high-frequency loudspeaker inside the chamber produced both a continuous background noise of 70 dB and the various acoustic stimuli. Vibrations of the Plexiglas cylinder caused by the whole-body startle response of the animal were transduced into analogue signals by a piezoelectric unit attached to the platform. These signals were then digitized and stored by a computer. Sixty-five readings were taken at 1-ms intervals starting at stimulus onset, and the average amplitude was used to determine the acoustic startle response. Sound levels is given in dB.
Prepulse inhibition session: After 5 min of habituation (background white noise, 70 dB), two types of acoustic stimuli were used: acoustic stimulus alone (120 dB, 40 ms) or the stimulus proceeded by a prepulse (76, 79, 82 dB, 40 ms) applied 100 ms before the stimulus. During each experimental session 20 trials of each type were presented with interstimulus interval of 20 s. The amplitudes were averaged for each individual animal, separately for both types of trials (stimulus alone or stimulus preceded by the prepulse). The degree of prepulse inhibition was shown as a percentage score (% PPI) calculated as […] a difference between the amplitude of the pulse-alone (P) and the amplitude of the prepulse+pulse trials (PP+P), divided by the amplitude of the pulse-alone trials and multiplied by 100. […] Substances and treatments: MK-801 0.2 mg/kg was dissolved in saline and was given i.p. In each experiment, […] were assigned to receive either compounds of the disclosure or vehicle and were tested in the PPI session using a between-subjects design. The order of drug treatment for the first experiment was test-compound, followed by MK-801; for the second experiment rats received test-compound and then amphetamine. Statistical Analysis: Multiple ANOVA was conducted followed by Dunnett's post hoc test.

Dopamine D2S = Dopamine D2S (Homo sapiens, UniProt P14416); experiment: Dopamine receptor radioligand binding assay; details: inhibition of specific binding
Description: (§1) The assays were performed, under standard conditions, as described in the following publications: Dearry A et al., Nature; 1990; 347: 72-76; Bunzow J R et al., Nature; 1988; 336: 783-787; Sokoloff P. et al., Nature; 1990; 347: 146-151; Van Tol H H M et al., Nature; 1991; 350: 610-614; Van Tol H H M et al., Nature; 1992; 358: 149-152; Sibley D R et al., Trend Pharmacol. Sci.; 1992; 13:61-69.
(§2) Biochemical assay results are presented as the percent inhibition of specific bindings at a single compound concentration. Responses are considered significant for binding activities >50%.

Dopamine D1 = Dopamine D1 (Homo sapiens, UniProt P21728); experiment: Dopamine receptor radioligand binding assay; details: inhibition of specific binding
Description: as §1, §2

Dopamine D4.2 = experiment: Dopamine receptor radioligand binding assay; details: inhibition of specific binding
Description: as §1, §2

Dopamine D2L = Dopamine D2L (Homo sapiens, UniProt P14416); experiment: Dopamine receptor radioligand binding assay; details: inhibition of specific binding
Description: as §1, §2

Dopamine D3 = Dopamine D3 (Homo sapiens, UniProt P35462); experiment: Dopamine receptor radioligand binding assay; details: inhibition of specific binding
Description: as §1, §2

Dopamine D5 = Dopamine D5 (Homo sapiens, UniProt P21918); experiment: Dopamine receptor radioligand binding assay; details: inhibition of specific binding
Description: as §1, §2

Dopamine D4.4 = molecular target: T1, Dopamine D4.4 (Homo sapiens, UniProt P21917); experiment: Dopamine receptor radioligand binding assay; details: inhibition of specific binding
T1 sequence (P21917 1-419): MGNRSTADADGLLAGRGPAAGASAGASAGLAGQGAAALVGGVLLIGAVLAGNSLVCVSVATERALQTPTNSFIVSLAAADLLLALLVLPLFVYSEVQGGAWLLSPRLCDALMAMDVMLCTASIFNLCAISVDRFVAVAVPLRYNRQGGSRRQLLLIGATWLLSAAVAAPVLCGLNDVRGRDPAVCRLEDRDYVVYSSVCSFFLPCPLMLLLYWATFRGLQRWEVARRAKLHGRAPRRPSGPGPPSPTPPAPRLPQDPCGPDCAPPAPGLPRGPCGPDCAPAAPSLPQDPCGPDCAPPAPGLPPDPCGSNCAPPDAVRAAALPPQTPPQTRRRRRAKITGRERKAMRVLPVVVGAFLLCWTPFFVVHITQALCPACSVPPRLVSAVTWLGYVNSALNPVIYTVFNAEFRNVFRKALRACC
Description: as §1, §2

Dopamine D4.7 = experiment: Dopamine receptor radioligand binding assay; details: inhibition of specific binding
Description: as §1, §2

[2] = test system: MK-801 induced hyperlocomotion; experiment: MK-801 induced hyperlocomotion in mice; type: in vivo; details: MK-801 induced locomotion in mice
Description: Glutamate N-methyl-D-aspartate (NMDA) receptor antagonists, like phencyclidine (PCP) or MK-801, elicit schizophrenia-like symptoms in humans and behavioural abnormalities in animals, such as hyperactivity. Atypical antipsychotics decrease hyperlocomotion produced in mice by MK-801 or PCP and this represents a commonly used animal models predictive of efficacy against the symptoms of schizophrenia. Vehicle or compound was injected 30-35 min before the animal entered the activity chambers. Hyperlocomotion was produced in mice by administration of MK-801 (0.3 mg/kg) 15 min before the animal entered the activity chambers (i.e., […] min after vehicle or compound administration) and the total distance traveled in centimeters was determined during a 15-30 min session. The increase in MK-801-induced total distance traveled were attenuated by active compounds.

[3] = treatment MK-801 0.2 mg/kg i.p.

Dopamine D2L, sequence (P14416 whole entry): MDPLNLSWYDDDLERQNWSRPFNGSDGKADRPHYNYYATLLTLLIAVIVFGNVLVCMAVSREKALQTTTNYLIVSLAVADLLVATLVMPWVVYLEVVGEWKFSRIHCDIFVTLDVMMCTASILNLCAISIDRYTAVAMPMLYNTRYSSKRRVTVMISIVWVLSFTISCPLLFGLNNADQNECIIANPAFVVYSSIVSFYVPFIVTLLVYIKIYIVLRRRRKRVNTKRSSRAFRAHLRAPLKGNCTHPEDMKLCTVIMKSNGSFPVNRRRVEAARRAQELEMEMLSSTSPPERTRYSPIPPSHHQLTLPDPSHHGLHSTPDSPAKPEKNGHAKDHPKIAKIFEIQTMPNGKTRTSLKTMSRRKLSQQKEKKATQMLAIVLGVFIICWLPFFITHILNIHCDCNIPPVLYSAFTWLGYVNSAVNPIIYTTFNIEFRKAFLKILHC
Dopamine D2S, sequence (P14416 1-414 isoform P14416-2): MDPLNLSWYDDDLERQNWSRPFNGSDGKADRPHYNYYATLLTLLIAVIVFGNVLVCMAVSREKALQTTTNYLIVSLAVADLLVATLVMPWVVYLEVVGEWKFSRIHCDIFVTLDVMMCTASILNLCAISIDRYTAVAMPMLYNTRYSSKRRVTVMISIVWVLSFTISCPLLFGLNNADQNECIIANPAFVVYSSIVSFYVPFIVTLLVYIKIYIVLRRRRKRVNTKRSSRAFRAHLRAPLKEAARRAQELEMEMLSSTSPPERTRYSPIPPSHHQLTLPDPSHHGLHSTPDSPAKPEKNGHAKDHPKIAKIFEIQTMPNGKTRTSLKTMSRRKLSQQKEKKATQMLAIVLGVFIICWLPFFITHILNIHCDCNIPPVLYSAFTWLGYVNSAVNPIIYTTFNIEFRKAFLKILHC
Dopamine D3, sequence (P35462 whole entry): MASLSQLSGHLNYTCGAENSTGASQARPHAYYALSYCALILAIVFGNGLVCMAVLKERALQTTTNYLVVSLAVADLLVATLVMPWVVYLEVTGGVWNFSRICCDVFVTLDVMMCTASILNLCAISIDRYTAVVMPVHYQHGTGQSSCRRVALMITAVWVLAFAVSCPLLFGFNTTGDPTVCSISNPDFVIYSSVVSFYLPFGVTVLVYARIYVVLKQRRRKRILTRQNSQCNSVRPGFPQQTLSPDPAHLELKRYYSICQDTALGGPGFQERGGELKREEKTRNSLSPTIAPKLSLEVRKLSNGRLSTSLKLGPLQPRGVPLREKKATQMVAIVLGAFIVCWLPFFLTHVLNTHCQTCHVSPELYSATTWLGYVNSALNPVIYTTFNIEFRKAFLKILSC
Dopamine D5, sequence (P21918 whole entry): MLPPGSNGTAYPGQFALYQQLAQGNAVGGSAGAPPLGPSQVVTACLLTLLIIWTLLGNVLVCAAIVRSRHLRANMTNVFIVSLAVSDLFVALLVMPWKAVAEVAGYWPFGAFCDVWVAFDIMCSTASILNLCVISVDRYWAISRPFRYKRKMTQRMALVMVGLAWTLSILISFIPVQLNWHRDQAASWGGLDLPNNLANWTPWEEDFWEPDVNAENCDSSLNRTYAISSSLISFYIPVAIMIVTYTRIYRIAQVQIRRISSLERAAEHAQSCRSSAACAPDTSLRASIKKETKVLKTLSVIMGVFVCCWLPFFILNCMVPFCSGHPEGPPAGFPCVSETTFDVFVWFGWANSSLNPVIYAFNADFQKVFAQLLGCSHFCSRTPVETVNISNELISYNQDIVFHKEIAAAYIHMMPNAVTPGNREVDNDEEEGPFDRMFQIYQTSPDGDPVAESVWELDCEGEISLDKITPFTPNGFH
Dopamine D1, sequence (P21728 whole entry): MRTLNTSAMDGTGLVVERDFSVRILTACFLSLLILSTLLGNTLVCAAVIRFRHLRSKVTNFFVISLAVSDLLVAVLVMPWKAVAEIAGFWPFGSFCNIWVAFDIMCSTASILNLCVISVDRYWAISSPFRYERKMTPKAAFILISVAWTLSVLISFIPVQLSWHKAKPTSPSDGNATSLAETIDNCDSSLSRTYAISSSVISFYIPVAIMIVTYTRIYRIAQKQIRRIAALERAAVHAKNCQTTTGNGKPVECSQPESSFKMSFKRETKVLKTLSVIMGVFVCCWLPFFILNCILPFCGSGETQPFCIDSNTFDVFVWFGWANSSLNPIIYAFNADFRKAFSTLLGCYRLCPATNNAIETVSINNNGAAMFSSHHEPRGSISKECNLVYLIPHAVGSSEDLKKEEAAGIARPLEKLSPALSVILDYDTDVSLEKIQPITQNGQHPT

Structure (SMILES): C[C@H](NCc1ccc(OCc2ccccc2F)cc1)C(N)=O [Ralfinamide methanesulfonate, (S)-(+)-2-[4-(2-fluorobenzyloxy)benzylamino]propanamide]
- Percentage of inhibition [1, 3]: 21.92 ± 0.40 %
- Percentage of inhibition ([1]; treatment vehicle): 44.16 ± 3.54%
- Reversing the disruptive effect of MK-801 on PPI ([1]; orally, 90 mg/kg): active
- Acoustic tone alone [1, 3]: 38.50 ± 1.36
- Startle amplitude on prepulse + pulse trials [1, 3]: 30.00 ± 0.90
- Acoustic tone alone ([1]; treatment vehicle): 35.50 ± 0.45
- Startle amplitude on prepulse + pulse trials ([1]; treatment vehicle): 20.00 ± 1.51
- % Inhibition at 10 μm (Dopamine D2S): no inhibition
- % Inhibition at 10 μm (Dopamine D1): no inhibition
- % Inhibition at 10 μm (Dopamine D4.2): 1%
- % Inhibition at 10 μm (Dopamine D2L): no inhibition
- % Inhibition at 10 μm (Dopamine D3): 7%
- % Inhibition at 10 μm (Dopamine D5): no inhibition
- % Inhibition at 10 μm (Dopamine D4.4): no inhibition
- % Inhibition at 10 μm (Dopamine D4.7): no inhibition
- Activity in schizophrenia animal model (Example 5) [2]: active
